Target: T1, HDAC6 enzyme (Homo sapiens, UniProt Q9UBN7)
T1 construct: transducing full length HDAC6 gene into Sf-9 insect cells; GST; purchased SignalChem; host or cells: Sf-9 insect cells
T1 sequence (Q9UBN7 1-1215): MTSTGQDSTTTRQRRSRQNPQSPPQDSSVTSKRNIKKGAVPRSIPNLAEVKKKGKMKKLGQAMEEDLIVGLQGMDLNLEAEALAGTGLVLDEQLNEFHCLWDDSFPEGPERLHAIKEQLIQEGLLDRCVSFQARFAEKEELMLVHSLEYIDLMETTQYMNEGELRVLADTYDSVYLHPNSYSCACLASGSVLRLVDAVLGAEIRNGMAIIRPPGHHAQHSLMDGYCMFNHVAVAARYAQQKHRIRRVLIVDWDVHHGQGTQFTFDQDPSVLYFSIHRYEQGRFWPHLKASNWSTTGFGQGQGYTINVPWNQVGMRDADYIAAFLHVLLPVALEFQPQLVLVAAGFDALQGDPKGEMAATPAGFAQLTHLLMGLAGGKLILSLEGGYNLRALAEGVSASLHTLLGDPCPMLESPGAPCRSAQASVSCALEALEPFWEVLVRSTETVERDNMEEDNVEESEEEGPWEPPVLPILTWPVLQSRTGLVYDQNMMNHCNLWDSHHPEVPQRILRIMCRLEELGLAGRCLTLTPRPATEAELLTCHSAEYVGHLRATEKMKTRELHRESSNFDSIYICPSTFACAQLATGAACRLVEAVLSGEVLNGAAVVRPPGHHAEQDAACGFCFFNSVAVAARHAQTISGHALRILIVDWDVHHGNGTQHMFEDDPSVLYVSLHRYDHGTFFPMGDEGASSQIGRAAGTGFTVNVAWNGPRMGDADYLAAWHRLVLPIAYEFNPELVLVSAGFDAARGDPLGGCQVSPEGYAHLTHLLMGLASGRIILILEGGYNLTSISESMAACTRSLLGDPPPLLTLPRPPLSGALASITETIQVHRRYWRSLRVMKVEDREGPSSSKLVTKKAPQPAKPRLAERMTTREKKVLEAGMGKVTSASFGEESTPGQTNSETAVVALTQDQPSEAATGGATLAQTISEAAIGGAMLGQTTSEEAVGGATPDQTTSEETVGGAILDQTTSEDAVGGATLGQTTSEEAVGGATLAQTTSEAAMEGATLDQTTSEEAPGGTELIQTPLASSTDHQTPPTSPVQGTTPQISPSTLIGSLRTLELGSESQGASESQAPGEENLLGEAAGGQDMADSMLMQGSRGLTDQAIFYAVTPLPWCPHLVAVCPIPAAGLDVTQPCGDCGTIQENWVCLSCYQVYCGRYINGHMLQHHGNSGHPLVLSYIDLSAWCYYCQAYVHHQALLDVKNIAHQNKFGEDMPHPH
Assay: HDAC6 enzyme inhibitory activity (HDAC-Glo I/II Assay kit)
Type: biochemical
Conditions: 10 μM; wells without enzyme = 100% inhibition
Procedure, shortened: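 Sf-9-derived GST-purified full-length HDAC6 + cpd, 60 min RT, 24 mM Tris pH 7.5/0.6 mM glutathione/0.01% Tween-20; add HDAC-Glo substrate-developer, 20 min RT; luminescence. No-enzyme = 100% inhibition.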

HDAC6 inhibitory rate (%) (10 μM): 99%
SMILES: O=C1c2cc(-c3nnc(C(F)F)o3)cnc2CN1[C@@H]1CCCC[C@H]1NC(=O)C(F)(F)C(F)(F)F [Example 489, N-((1R,2R)-2-(3-(5-(difluoromethyl)-1,3,4-oxadiazol-2-yl)-5-oxo-5,7-dihydro-6H-pyrrolo[3,4-b]pyridin-6-yl)cyclohexyl)-2,2,3,3,3-pentafluoropropanamide]
